For one assay, the target named is T1, plasma ATX/LysoPLD (Mus musculus, UniProt Q9R1E6).
T1 construct: from tissue; host or cells: mouse plasma / whole blood
The assay can be described thus: Plasma ATX/lysoPLD activity ex vivo (TOOS assay, exogenous LPC). The class given is biochemical. The note with it: for IC50: TOOS. As to the method: ATX/LysoPLD activity was assessed based on the amount of choline released from LPC with the use of TOOS (N-ethyl-N-(2-hydoroxy-3-sulfopropyl)-3-methylaniline) reagent. In this assay ATX-mediated LPC-liberated choline is oxidised by choline oxidase to betaine and hydrogen peroxide (H2O2). The latter in the presence of horseradish peroxidase reacts with TOOS and 4-aminoantipyrene (4-AAP) to form a pink quinoneimine dye measured at 555 nm.
Diluted plasma samples (100 fold dilution; final EDTA concentration 0.5 mM) or recombinant ATX protein (2 nM) were incubated with LPC in the presence of 100 mmol/l Tris–HCl/pH 9.0, 500 mmol/l NaCl, 5 mmol/l MgCl2, 5 mmol/l CaCl2, 60 μM CoCl2 and 0.05% Triton X-100 for 3 h at 37°C at a final volume of 100 μl. It should be noted that EDTA was used not only as an anticoagulant but also as an inhibitor of ATX activity ex vivo [46], in order to suppress artificial LPA production during blood withdrawal and plasma preparation; this is because the same samples were used in phospholipid measurements.
The liberated choline was detected by adding 100 μl of a color mix containing 4-AAP and TOOS (0.3 mM), horseradish peroxidase (5.3 UnitmL^−1) and choline oxidase (2 UnitmL^−1). Absorbance was measured at 555 nm and data were analyzed using the statistical software package Prism 4.0 (Graphpad Software Inc, La Jolla, CA, USA). For each sample and control the absorbance was plotted against time and the slope (da/min) for the linear (steady-state) portion of each reaction profile was calculated. Absorbance units were converted to nmol of choline/min/ml by comparison with a choline standard curve or by use of the extinction coefficient for the quinoneimine dye according to the following equation: [drawing 1] Where Vt* is the total volume of reaction in ml (0.2 ml); Vs* is the volume of sample in ml; e is the millimolar extinction coefficient of quinoneimine dye under the assay conditions (e = e = […]); and 1/2: Factor based on the fact that 1 mol of hydrogen peroxide produces 1/2 mol of quinoneimine dye.
For in vitro inhibition measurements, BrP-LPA was dissolved in water as a stock solution (4 mM) and appropriate dilutions were made in water. The inhibition of ATX by BrP-LPA was measured employing 2 nM recombinant ATX, 50 μΜ LPC (14:0, 16:0, 18:0) and 0.01 to 100 μmol/L of BrP-LPA (final concentrations). The in vitro inhibition of ATX by BrP-LPA was evaluated with three different assays (FS-3, Amplex Red, and TOOS). […] BrP-LPA was also tested for its ability to inhibit mouse plasma ATX activity. Diluted mouse plasma was used as the source of ATX and the analysis of inhibition was made with TOOS as the in vitro inhibition assay.
The inhibition model (competitive, noncompetitive, or mixed type inhibition) was evaluated by graphical analysis with Lineweaver–Burk double reciprocal plots (1/[velocity] versus 1/[substrate]) and Cornish-Bowden plot ([substrate]/[velocity] versus [Inhibitor]). These plots were generated by the measurement of ATX activity in the presence of different BrP-LPA concentrations (0–10 μΜ) and increased amounts of 16:0 LPC (100, 200, 400 μΜ). The inhibition constants (Ki) and IC50 values were determined using the mean values obtained from two independent experiments. The relative remaining ATX activity or LPA levels in the presence of the BrP-LPA was expressed as a percentage of the corresponding control value (ATX activity, LPA levels without inhibitor). The IC50 value was determined graphically by plotting the log concentration of BrP-LPA versus relative remaining ATX activity or LPA levels of each test sample using the sigmoid dose–response fitting method (Prism® software). The IC50 (concentration of BrP-LPA sufficient to inhibit ATX activity or diminish LPA levels by 50%) was calculated by the equation f = y0+a/(1+exp(-(x-x0)/b)) given by SigmaPlot 11.0 (Systat Software, Inc., San Jose, CA, USA).

The next assay deals with MDA-MB-231. Set-up: method as in PMID 19509223. The conditions noted are these: MDA-MB-231, in vitro; cited from earlier work.
Assay [1] has as its system non-small cell lung cancer xenograft. Set-up: method as in PMID 20143443. The conditions noted are these: three-dimensional non-small cell lung cancer xenograft; cited from earlier work.
The subject of assay [2] is orthotopic breast cancer xenograft model. Set-up: method as in PMID 19509223. The note with it: in vivo; cited from earlier work.

The text below walks through data of publication PMC3726599, “A Metabolically-Stabilized Phosphonate Analog of Lysophosphatidic Acid Attenuates Collagen-Induced Arthritis” (PLoS ONE, 2013).

Turning to `CCCCCCCCCCCCCCCC(=O)OC[C@@H](O)CC(Br)P(=O)(O)O` (stereo partly drawn) [BrP-LPA, 1-bromo-3(S)-hydroxy-4-(palmitoyloxy)butyl-phosphonate], the figures for the “% Inhibition at 10 μΜ” value on plasma ATX/LysoPLD (14:0 LPC 50 μΜ), at plasma ATX/LysoPLD (16:0 LPC 50 μΜ) and on plasma ATX/LysoPLD (18:0 LPC 50 μΜ) were 28%, 58% and 70%, respectively. Besides, the figures for the IC50 against plasma ATX/LysoPLD (exogenous 14:0 LPC 50 μΜ), against plasma ATX/LysoPLD (exogenous 16:0 LPC 50 μΜ) and at plasma ATX/LysoPLD (exogenous 18:0 LPC 50 μΜ) were over 10 µM, 2.9 ± 0.3 µM and under 0.1 µM, respectively. The “breast cancer cell migration” value in the assay with MDA-MB-231 is “reduce breast cancer cell (MDA-MB-231) migration in vitro”. For the same molecule, the “tumor growth and angiogenesis” value in assay [1] was “inhibit tumor growth and angiogenesis”. Also, the tumor regression entry in assay [2] is “cause tumor regression in vivo”.

One may read the % Inhibition as the percentage by which the read-out fell short of the control. A higher % Inhibition goes with a response far below the control. Broadly, the IC50 is the concentration at which inhibition is half-maximal. Low values mean greater potency, high ones weaker potency.
